Common to all, as to type: cell-based
Data set [1] relates to Acinetobacter baumannii (ATCC 17978). Kind of data set: microbe, parasite or virus in culture. The settings on record: read-out: Minimal bactericidal concentration (MBC) A. b. The source says: (§1) The pathogenic bacterial strains obtained from the ATCC (United States) and NCTC (National Collection of Type Cultures – England) were the Gram-positive: Enterococcus faecalis (ATCC 29212), Staphylococcus aureus (HNCMO112011), Listeria monocytogenes (ATCC 19111) and the Gram-negative: Pseudomonas aeruginosa (ATCC 27853), Escherichia coli (ATCC 8739), Salmonella enterica (ATCC 13076), Klebsiella pneumoniae (NCTC 13440), Acinetobacter baumannii (ATCC 17978).
(§2) Overnight bacterial cultures grown in LB were diluted and grown to OD600 = 0.2–0.6 at 37°C with shaking. After harvesting and washing bacteria in PPB, the suspensions were adjusted to OD600 = 0.1 corresponding to ∼10^7 bacteria/mL. Antimicrobial activity of the peptides and the antibiotics was determined in PPB in 96 well microplates using 10 μL bacterial suspension and 90 μL of the 2-fold serial dilutions of peptides or antibiotics. Peptides were tested from 25 μM to 0.125 μM whereas the antibiotics; carbenicillin (Cb) from Duchefa Biochemie (Prod.No. C0109.0025) and levofloxacin (Lvx) from Sigma-Aldrich (Prod.No. 28266-10MG-F) from […] to 0.1 μM. The microplates were incubated for 3 h at 37°C with 250 rpm shaking and then 5 μl from each sample was placed on LB agar and the growth of bacteria was monitored after overnight incubation at 37°C. The lowest concentration of the antimicrobial agents, which completely eliminated viable bacteria was the minimal bactericidal concentration (MBC).

Data set [2] has as its system Enterococcus faecalis (ATCC 29212). Kind of data set: microbe, parasite or virus in culture. The conditions noted are these: read-out: Minimal bactericidal concentration (MBC) E. f.
From the text: as §1, §2

Data set [3] concerns Escherichia coli (ATCC 8739). Kind of data set: microbe, parasite or virus in culture. The settings on record: read-out: Minimal bactericidal concentration (MBC) E. c.
From the text: as §1, §2

Data set [4] relates to Klebsiella pneumoniae (NCTC 13440). Kind of data set: microbe, parasite or virus in culture. The conditions noted are these: read-out: Minimal bactericidal concentration (MBC) K. p.
From the text: as §1, §2

For data set [5], the system named is Listeria monocytogenes (ATCC 19111). Kind of data set: microbe, parasite or virus in culture. The conditions noted are these: read-out: Minimal bactericidal concentration (MBC) L. m.
From the text: as §1, §2

Data set [6] concerns Pseudomonas aeruginosa (ATCC 27853). Kind of data set: microbe, parasite or virus in culture. The conditions noted are these: read-out: Minimal bactericidal concentration (MBC) P. a.
From the text: as §1, §2

Data set [7] concerns Salmonella enterica (ATCC 13076). Description: microbe, parasite or virus in culture. The settings on record: read-out: Minimal bactericidal concentration (MBC) S. e.
From the text: as §1, §2

The subject of data set [8] is Staphylococcus aureus (HNCMO112011). Kind of data set: microbe, parasite or virus in culture. The settings on record: read-out: Minimal bactericidal concentration (MBC) S. a.
From the text: as §1, §2

Data set [9] concerns ESKAPE bacteria, L. monocytogenes and S. enterica. Kind of data set: Antimicrobial activity in PPB, summarised over the tested bacteria. The conditions noted are these: 3 h in PPB; carbenicillin range excludes L. monocytogenes; peptide G range excludes E. faecalis.
From the text: as §1, §2

In data set [10] the test system is Acinetobacter baumannii.
From the text: as §1
(§3) Ca^2+ and Mg^2+ can inhibit the antimicrobial activity of cationic peptides, therefore the MBC and MIC values were also determined in MHB, which unlike PPB contains divalent cations and allows growth of bacteria. Bacteria were grown and prepared similarly except that bacteria were resuspended in MHB. 10 μl of bacteria OD600 = 0.1, supplemented with 45 μl MHB and 45 μl of 2-fold dilution series of peptides, were cultivated for 3 and 20 h at 37°C with shaking. Optical density of each sample was measured (Hidex Sense Microplate Reader with Plate Reader Software version 5064) and 5 μl was placed on LB agar plates after 3 and 20 h treatment. The minimal inhibitory concentration (MIC) corresponded to the lowest concentration, which inhibited growth.

The test system of data set [11] is Escherichia coli.
From the text: as §1, §3

The test system of data set [12] is Staphylococcus aureus.
From the text: as §1, §3

The subject of data set [13] is human melanoma A375 cells. Kind of data set: XTT cell proliferation (cytotoxicity) assay. The settings on record: 72 h treatment, OD450, three biological repeats. As to the method:
The cytotoxicity of peptides X1-NCR247C and NCR247C-X2 was determined against the human melanoma A375 cells with XTT cell proliferation assay kit (PanReac Applichem) and a benchtop microplate reader (Multiskan RC, Thermo Labsystems) according to the manufacturers’ instructions. A375 human melanoma cell line was obtained from ATCC and maintained in DMEM (Lonza) supplemented by 10% FBS (Euroclone) in a humidified incubator at 37°C and 5% CO2. A375 cells were seeded to 96-well plates (4,000 cells/well) and treated with the peptides for 72 h. Cells without peptides served as negative control and the blank sample was the medium. Reduction of the tetrazolium salt XTT by the viable cells to the orange colored compounds of formazan was measured at OD450. The XTT assay was performed in three biological repeats.
In general terms: Tetrazolium dyes change colour on reduction, which living cells bring about.

The mark [14] stands for this setting: Acinetobacter baumannii, ATCC17978, 3 h treatment in PPB (20 mM potassium-phosphate buffer, pH 7.4), 37°C, then plating on LB agar.
The mark [15] stands for this setting: Enterococcus faecalis, ATCC29212, 3 h treatment in PPB (20 mM potassium-phosphate buffer, pH 7.4), 37°C, then plating on LB agar.
The mark [16] stands for this setting: Escherichia coli, ATCC8739, 3 h treatment in PPB (20 mM potassium-phosphate buffer, pH 7.4), 37°C, then plating on LB agar.
[17] abbreviates: Klebsiella pneumoniae, NCTC13440, 3 h treatment in PPB (20 mM potassium-phosphate buffer, pH 7.4), 37°C, then plating on LB agar.
Setting [18] is: Listeria monocytogenes, ATCC19111, 3 h treatment in PPB (20 mM potassium-phosphate buffer, pH 7.4), 37°C, then plating on LB agar.
The mark [19] stands for this setting: Pseudomonas aeruginosa, ATCC27853, 3 h treatment in PPB (20 mM potassium-phosphate buffer, pH 7.4), 37°C, then plating on LB agar.
The mark [20] stands for this setting: Salmonella enterica, ATCC13076, 3 h treatment in PPB (20 mM potassium-phosphate buffer, pH 7.4), 37°C, then plating on LB agar.
Setting [21] is: Staphylococcus aureus, 3 h treatment in PPB (20 mM potassium-phosphate buffer, pH 7.4), 37°C, then plating on LB agar.

≈ marks a conversion by molar mass, not a printed value. Entries after “also recorded” stand apart in the source; their conditions may differ. Like-named read-outs stand apart in the source and are kept apart here. Peptide text beside a SMILES is read from it.

Regarding `C[C@H]1COc2c(N3CCN(C)CC3)c(F)cc3c(=O)c(C(=O)O)cn1c23` [Lvx, levofloxacin, reference compound], the MBC in data set [1] (setting [14]) came to 20 µM (≈ 7.23 µg/mL); in data set [2] (setting [15]), 160 µM (≈ 57.8 µg/mL); in [3] (setting [16]), 5 µM (≈ 1.81 µg/mL); in data set [4] (setting [17]), 320 µM (≈ 116 µg/mL); in data set [5] (setting [18]), 320 µM (≈ 116 µg/mL); in data set [6] (setting [19]), 1.3 µM (≈ 0.47 µg/mL). Moreover, the MBC came to 1.3 µM (≈ 0.47 µg/mL) in data set [7] (setting [20]) and 2.5 µM (≈ 0.903 µg/mL) in data set [8] (setting [21]). Further, the “MBC, range over the tested bacteria as summarised in the text” value in data set [9] lay within 1.25 to 320 µM.

With `CSCC[C@H](NC(=O)[C@H](CCCCN)NC(=O)[C@H](Cc1ccccc1)NC(=O)[C@H](CC(N)=O)NC(=O)[C@H](CC(C)C)NC(=O)[C@@H]1CCCN1C(=O)[C@@H](N)CCCNC(=N)N)C(=O)N[C@@H](CC(C)C)C(=O)N[C@@H](CCCNC(=N)N)C(=O)N[C@@H](Cc1ccccc1)C(=O)N[C@@H](Cc1c[nH]c2ccccc12)C(=O)NCC(=O)N[C@@H](CCC(N)=O)C(=O)N[C@@H](CCC(N)=O)C(=O)N[C@@H](CCC(N)=O)C(=O)N[C@@H](CS)C(=O)N[C@@H](CCCNC(=N)N)C(=O)N[C@@H](CCCNC(=N)N)C(=O)N1CCC[C@H]1C(=O)N[C@@H](CC(C)C)C(=O)N[C@@H](Cc1ccc(O)cc1)C(=O)N[C@@H](CS)C(=O)N[C@@H](CCCNC(=N)N)C(=O)N[C@@H](CCCNC(=N)N)C(=O)N[C@@H](CCCNC(=N)N)C(N)=O` [D, X1-NCR247C] (H-RPLNFKMLRFWGQQQCRRPLYCRRR-NH2; N-terminus assumed), the MBC is listed as 3.1 µM (≈ 10.3 µg/mL) in [1] (ATCC 17978, 3 h, pH 7.4); 6.3 µM (≈ 20.8 µg/mL) in data set [2] (ATCC 29212, 3 h, pH 7.4); 3.1 µM (≈ 10.3 µg/mL) in [3] (ATCC 8739, 3 h, pH 7.4); 12.5 µM (≈ 41.4 µg/mL) in data set [4] (NCTC 13440, 3 h, pH 7.4); 3.1 µM (≈ 10.3 µg/mL) in [5] (ATCC 19111, 3 h, pH 7.4); 3.1 µM (≈ 10.3 µg/mL) in data set [6] (ATCC 27853, 3 h, pH 7.4). The MBC in [7] (ATCC 13076, 3 h, pH 7.4) is 1.6 µM (≈ 5.29 µg/mL); in data set [8] (HNCMO112011, 3 h, pH 7.4) it was 3.1 µM (≈ 10.3 µg/mL). Also, the “MBC in Mueller Hinton Broth, panel (A), A. b.” value in data set [10] (3 h) was 6.3 µM (≈ 20.8 µg/mL). For the same compound, the “MBC in Mueller Hinton Broth, panel (B), A. b.” value in [10] (20 h) was determined as 3.1 µM (≈ 10.3 µg/mL). Further, in data set [10] (20 h), the “MIC in Mueller Hinton Broth, panel (C), A. b.” value was 3.1 µM (≈ 10.3 µg/mL). Besides, the “MBC in Mueller Hinton Broth, panel (A), E. c.” value in data set [11] (3 h) came out at 12.5 µM (≈ 41.4 µg/mL). Also, the “MBC in Mueller Hinton Broth, panel (B), E. c.” value in [11] (20 h) is 3.1 µM (≈ 10.3 µg/mL). In data set [11] (20 h), the “MIC in Mueller Hinton Broth, panel (C), E. c.” value worked out at 3.1 µM (≈ 10.3 µg/mL). Further, the “MBC in Mueller Hinton Broth, panel (A), S. a.” value in [12] (3 h) was found to be 25 µM (≈ 82.7 µg/mL). Further, the “MBC in Mueller Hinton Broth, panel (B), S. a.” value in [12] (20 h) came out at 3.1 µM (≈ 10.3 µg/mL). For the same compound, the “MIC in Mueller Hinton Broth, panel (C), S. a.” value in data set [12] (20 h) is 3.1 µM (≈ 10.3 µg/mL). The “Cytotoxicity / viability of A375 cells” value in [13] is listed as “did not show differences”.

Turning to `CC1(C)S[C@@H]2[C@H](NC(=O)C(C(=O)O)c3ccccc3)C(=O)N2[C@H]1C(=O)O` (stereo partly shown) [Cb, carbenicillin, reference compound], the MBC in data set [1] (setting [14]) is 5120 µM (≈ 1940 µg/mL); in data set [2] (setting [15]), 5120 µM (≈ 1940 µg/mL); in data set [3] (setting [16]), 1280 µM (≈ 484 µg/mL); in data set [4] (setting [17]), more than 10200 µM; in data set [5] (setting [18]), 80 µM (≈ 30.3 µg/mL); in [6] (setting [19]), 10200 µM (≈ 3870 µg/mL). Also, the MBC in data set [7] (setting [20]) and in data set [8] (setting [21]) was 640 µM (≈ 242 µg/mL) in each case. In addition, the “MBC, range over the tested bacteria as summarised in the text” value in [9] was 640 to 10240 µM.

In the case of `CC[C@H](C)[C@H](NC(=O)[C@H](CCCCN)NC(=O)[C@H](CCCCN)NC(=O)[C@H](C)NC(=O)[C@H](CC(C)C)NC(=O)[C@H](C)NC(=O)[C@H](C)NC(=O)[C@H](CC(C)C)NC(=O)[C@H](C)NC(=O)[C@H](CCCCN)NC(=O)[C@H](CCCNC(=N)N)NC(=O)[C@H](CCCNC(=N)N)NC(=O)[C@H](CCCNC(=N)N)NC(=O)[C@H](CS)NC(=O)[C@H](Cc1ccc(O)cc1)NC(=O)[C@H](CC(C)C)NC(=O)[C@@H]1CCCN1C(=O)[C@H](CCCNC(=N)N)NC(=O)[C@H](CCCNC(=N)N)NC(=O)[C@H](CS)NC(=O)[C@H](CCC(N)=O)NC(=O)[C@@H](N)CCC(N)=O)C(=O)N[C@@H](CC(C)C)C(N)=O` [F, NCR247C-X2] (H-QQCRRPLYCRRRKALAALAKKIL-NH2; N-terminus assumed), the “Cytotoxicity / viability of A375 cells” value in data set [13] was “no cytotoxicity up to 12.5 μM; also recorded: slight decrease of the viable cell number was observed at 25 μM”.

The values are drawn from publication PMC7047876, “Potent Chimeric Antimicrobial Derivatives of the Medicago truncatula NCR247 Symbiotic Peptide” (Frontiers in Microbiology, 2020).
